From patent US6642217B2, “Triterpenes having human antifungal and antiyeast activity” (Naturtek, LLC, priority 2000, dated 2003)

Tests used:
Microsporum audouinni [1] = test: Direct addition method, solid compound in Sabouraud dextrose agar; type: cell-based, Microsporum audouinii; set-up: key to Fungal growth: +++: Maximum Fungal Growth; ++: Moderate Fungal Growth; +: Minimum Fungal Growth; +/−: Very little Fungal Growth; −: No Fungal Growth; details: 4 mg/mL of agar; 12th day after inoculation
Protocol: (§1) Direct addition method. Sabouraud dextrose agar was prepared according to the manufacturer's instructions and 5.0 ml was dispensed in each 100×25 mm tube. The tubes were autoclaved. To each tube containing 5.0 ml of liquid agar at 45° C., 20 mg of solid test compound was added, to give a final concentration of 4 mg/ml. The agar was solidified in slants. The fungal cultures were then innoculated. The slants were incubated at 25-28 ° C. for 10-12 days, and the growth of the fungus was recorded every second day. The results in Table 2 indicate growth at the 12th day of inoculation.

Pityrosporum ovale [2] = test: Direct addition into the Pityrosporum agar; type: cell-based; set-up: key to Pityrosporum ovale growth: +++: Maximum Growth; ++: Moderate Growth; +: Minimum Growth; +/−: Very Little Growth; −: No Growth; details: for Pityrosporum ovale growth: 4 mg/ml in the agar, 18 hours after inoculation
Protocol: Direct addition method. Sabouraud dextrose agar was prepared according to the manufacturer's instructions and 5.0 ml was dispensed in each 100×25 mm tube. The tubes were autoclaved. To each tube containing 5.0 ml of liquid agar at 45° C., 20 mg of solid test compound was added, to give a final concentration of 4 mg/ml. The agar was solidified in slants. The fungal cultures were then innoculated. […]

Trichophyton rubrum [3] = test: Direct addition method, solid compound in Sabouraud dextrose agar; type: cell-based; set-up: key: +++: Maximum Fungal Growth; ++: Moderate Fungal Growth; +: Minimum Fungal Growth; +/−: Very little Fungal Growth; −: No Fungal Growth; details: 4 mg/mL of agar; 12th day after inoculation
Protocol: as §1

Epidermophyton floccosum [4] = test: as above; type: cell-based; set-up: key: +++: Maximum Fungal Growth; ++: Moderate Fungal Growth; +: Minimum Fungal Growth; +/−: Very little Fungal Growth; −: No Fungal Growth; details: 4 mg/mL of agar; 12th day after inoculation
Protocol: as §1

Pityrosporum ovale [5] = test: as above; type: cell-based; set-up: key: +++: Maximum Fungal Growth; ++: Moderate Fungal Growth; +: Minimum Fungal Growth; +/−: Very little Fungal Growth; −: No Fungal Growth; details: 4 mg/mL of agar; 12th day after inoculation
Protocol: as §1

Microsporum canis [6] = test: as above; type: cell-based; set-up: key: +++: Maximum Fungal Growth; ++: Moderate Fungal Growth; +: Minimum Fungal Growth; +/−: Very little Fungal Growth; −: No Fungal Growth; details: 4 mg/mL of agar; 12th day after inoculation
Protocol: as §1

Trichophyton rubrum [7] = test: Agar dilution method, growth on Sabouraud dextrose agar slants; type: cell-based; set-up: key: +++: Maximum Fungal Growth; ++: Moderate Fungal Growth; +: Minimum Fungal Growth; +/−: Very little Fungal Growth; −: No Fungal Growth; details: 12th day after inoculation
Protocol: (§2) Agar dilution method. Sabouraud Dextrose Agar (Difco Laboratories, Michigan) was prepared according to the manufacturer's instructions. Five ml was dispensed in a 100×25 mm tube and autoclaved. To each tube containing 5.0 ml of liquid agar at 45° C., 0.5, 0.25, 0.12, or 0.063 ml of a DMSO solution of the compound was added to give the final indicated concentrations in Table 2. The agar was then solidified in slants. Fungal cultures were inoculated. The slants were incubated at 25-28° C. for 10-12 days, and the growth of the fungus was recorded every second day.

Microsporum gypseum = test: as above; type: cell-based; set-up: key: +++: Maximum Fungal Growth; ++: Moderate Fungal Growth; +: Minimum Fungal Growth; +/−: Very little Fungal Growth; −: No Fungal Growth; details: 12th day after inoculation
Protocol: as §2

Pityrosporum ovale [8] = test: as above; type: cell-based; set-up: key: +++: Maximum Fungal Growth; ++: Moderate Fungal Growth; +: Minimum Fungal Growth; +/−: Very little Fungal Growth; −: No Fungal Growth; details: 12th day after inoculation
Protocol: as §2

Microsporum canis [9] = test: as above; type: cell-based; set-up: key: +++: Maximum Fungal Growth; ++: Moderate Fungal Growth; +: Minimum Fungal Growth; +/−: Very little Fungal Growth; −: No Fungal Growth; details: 12th day after inoculation
Protocol: as §2

Epidermophyton floccosum [10] = test: as above; type: cell-based; set-up: key to Fungal growth: +++: Maximum Fungal Growth; ++: Moderate Fungal Growth; +: Minimum Fungal Growth; +/−: Very little Fungal Growth; −: No Fungal Growth; details: 12th day after inoculation
Protocol: as §2

[11] = system: Trichophyton mentagrophyte; test: as above; type: cell-based, Trichophyton mentagrophytes; set-up: key to Fungal growth: +++: Maximum Fungal Growth; ++: Moderate Fungal Growth; +: Minimum Fungal Growth; +/−: Very little Fungal Growth; −: No Fungal Growth; details: for Fungal growth: 12th day after inoculation
Protocol: as §2

Microsporum audouinni [12] = test: as above; type: cell-based, Microsporum audouinii; set-up: key: +++: Maximum Fungal Growth; ++: Moderate Fungal Growth; +: Minimum Fungal Growth; +/−: Very little Fungal Growth; −: No Fungal Growth; details: 12th day after inoculation
Protocol: as §2

Trichophyton tonsuran = test: as above; type: cell-based, Trichophyton tonsurans; set-up: key: +++: Maximum Fungal Growth; ++: Moderate Fungal Growth; +: Minimum Fungal Growth; +/−: Very little Fungal Growth; −: No Fungal Growth; details: 12th day after inoculation
Protocol: as §2

SMILES | Fungal growth (Microsporum audouinni [1]) | Pityrosporum ovale growth (Pityrosporum ovale [2]) | Fungal growth (Trichophyton rubrum [3]) | Fungal growth (Epidermophyton floccosum [4]) | Fungal growth (Pityrosporum ovale [5]) | Fungal growth (Microsporum canis [6]) | Fungal growth (Trichophyton rubrum [7]; 125 μg/ml) | Fungal growth (Trichophyton rubrum [7]; 250 μg/ml) | Fungal growth (Trichophyton rubrum [7]; 500 μg/ml) | Fungal growth (Trichophyton rubrum [7]; 1000 μg/ml) | Fungal growth (Microsporum gypseum; 125 μg/ml) | Fungal growth (Microsporum gypseum; 250 μg/ml) | Fungal growth (Microsporum gypseum; 500 μg/ml) | Fungal growth (Microsporum gypseum; 1000 μg/ml) | Fungal growth (Pityrosporum ovale [8]; 125 μg/ml) | Fungal growth (Pityrosporum ovale [8]; 250 μg/ml) | Fungal growth (Pityrosporum ovale [8]; 500 μg/ml) | Fungal growth (Pityrosporum ovale [8]; 1000 μg/ml) | Fungal growth (Microsporum canis [9]; 125 μg/ml) | Fungal growth (Microsporum canis [9]; 250 μg/ml) | also measured
CC1(C)CCC23CCC4(C)C(CCC5C6(C)CCC(OC(=O)CN)C(C)(C)C6CCC54C)C2C1OC3 (centres unmarked) [Allobetulin-3-glycine] | + | + | ++ | − | − | + |  |  |  |  |  |  |  |  |  |  |  |  |  |  | 
C=C(C)[C@@H]1CC[C@]2(COC(=O)COCC(=O)O)CC[C@]3(C)[C@H](CC[C@@H]4[C@@]5(C)CC[C@H](OC(=O)COCC(=O)O)C(C)(C)[C@@H]5CC[C@]43C)[C@@H]12 [Betulin-3,28-didiglycolate] |  |  |  |  |  |  | ++ | + | + | − | +++ | +++ | ++ | − | +++ | +++ | ++ | +/− | +++ | +++ | Fungal growth (Microsporum canis [9]; 500 μg/ml): +; Fungal growth (Microsporum canis [9]; 1000 μg/ml): −; Fungal growth (Epidermophyton floccosum [10]; 125 μg/ml): ++; Fungal growth (Epidermophyton floccosum [10]; 250 μg/ml): +; Fungal growth (Epidermophyton floccosum [10]; 500 μg/ml): −; Fungal growth (Epidermophyton floccosum [10]; 1000 μg/ml): −; Fungal growth ([11]; 125 μg/ml): +; Fungal growth ([11]; 250 μg/ml): +; Fungal growth ([11]; 500 μg/ml): +/−; Fungal growth ([11]; 1000 μg/ml): −; best antifungal or anti-yeast activity by the agar dilution method ([11]; against Trichophyton mentagrophytes): against Trichophyton mentagrophytes; Fungal growth (Microsporum audouinni [12]; 125 μg/ml): ++; Fungal growth (Microsporum audouinni [12]; 250 μg/ml): ++; Fungal growth (Microsporum audouinni [12]; 500 μg/ml): −; Fungal growth (Microsporum audouinni [12]; 1000 μg/ml): −; Fungal growth (Trichophyton tonsuran; 125 μg/ml): ++; Fungal growth (Trichophyton tonsuran; 250 μg/ml): +; Fungal growth (Trichophyton tonsuran; 500 μg/ml): +; Fungal growth (Trichophyton tonsuran; 1000 μg/ml): −
C=C(C)[C@@H]1CC[C@]2(COC(=O)CCCC(=O)O)CC[C@]3(C)[C@H](CC[C@@H]4[C@@]5(C)CC[C@H](OC(=O)CCCC(=O)O)C(C)(C)[C@@H]5CC[C@]43C)[C@@H]12 [Betulin-3,28-diglutarate] | + | +/− | + | − | − | + |  |  |  |  |  |  |  |  |  |  |  |  |  |  | Growth inhibition of Pityrosporum ovale by the direct addition method (Pityrosporum ovale [2]; 4 mg/ml): inhibited the growth
C=C(C)C1CCC2(CO)CCC3(C)C(CCC4C5(C)CCC(OC(=O)C=CC(=O)O)C(C)(C)C5CCC43C)C12 (centres unmarked) [Betulin-3-maleate] |  |  |  |  |  |  | ++ | ++ | + | − | +++ | ++ | ++ | − | +++ | +++ | ++ | +/− | + | +/− | Fungal growth (Microsporum canis [9]; 500 μg/ml): +/−; Fungal growth (Microsporum canis [9]; 1000 μg/ml): −; Fungal growth (Epidermophyton floccosum [10]; 125 μg/ml): ++; Fungal growth (Epidermophyton floccosum [10]; 250 μg/ml): +; Fungal growth (Epidermophyton floccosum [10]; 500 μg/ml): −; Fungal growth (Epidermophyton floccosum [10]; 1000 μg/ml): −; Fungal growth ([11]; 125 μg/ml): ++; Fungal growth ([11]; 250 μg/ml): +; Fungal growth ([11]; 500 μg/ml): +/−; Fungal growth ([11]; 1000 μg/ml): −; Fungal growth (Microsporum audouinni [12]; 125 μg/ml): +/−; Fungal growth (Microsporum audouinni [12]; 250 μg/ml): +/−; Fungal growth (Microsporum audouinni [12]; 500 μg/ml): −; Fungal growth (Microsporum audouinni [12]; 1000 μg/ml): −; Fungal growth (Trichophyton tonsuran; 125 μg/ml): ++; Fungal growth (Trichophyton tonsuran; 250 μg/ml): ++; Fungal growth (Trichophyton tonsuran; 500 μg/ml): +; Fungal growth (Trichophyton tonsuran; 1000 μg/ml): −
COC1=CC(=O)C[C@@H](C)[C@]12Oc1c(Cl)c(OC)cc(OC)c1C2=O [Griseofulvin, reference compound] | − | + | − | − | − | − | +/− | +/− | − | − | +/− | +/− | − | − | +++ | +++ | ++ | − | +/− | +/− | Fungal growth (Microsporum canis [9]; 500 μg/ml): −; Fungal growth (Microsporum canis [9]; 1000 μg/ml): −; Fungal growth (Epidermophyton floccosum [10]; 125 μg/ml): ++; Fungal growth (Epidermophyton floccosum [10]; 250 μg/ml): +; Fungal growth (Epidermophyton floccosum [10]; 500 μg/ml): −; Fungal growth (Epidermophyton floccosum [10]; 1000 μg/ml): −; Fungal growth ([11]; 125 μg/ml): ++; Fungal growth ([11]; 250 μg/ml): +; Fungal growth ([11]; 500 μg/ml): −; Fungal growth ([11]; 1000 μg/ml): −; Fungal growth (Microsporum audouinni [12]; 125 μg/ml): −; Fungal growth (Microsporum audouinni [12]; 250 μg/ml): −; Fungal growth (Microsporum audouinni [12]; 500 μg/ml): −; Fungal growth (Microsporum audouinni [12]; 1000 μg/ml): −; Fungal growth (Trichophyton tonsuran; 125 μg/ml): +/−; Fungal growth (Trichophyton tonsuran; 250 μg/ml): +/−; Fungal growth (Trichophyton tonsuran; 500 μg/ml): −; Fungal growth (Trichophyton tonsuran; 1000 μg/ml): −
C=C(C)C1CCC2(C)CCC3(C)C(CCC4C5(C)CCC(OC(=O)CCC(=O)O)C(C)(C)C5CCC43C)C12 (centres unmarked) [Lupeol-3-succinate] | + | + | + | − | − | + |  |  |  |  |  |  |  |  |  |  |  |  |  |  | 
